Where no end group is shown, it is not given here.
Assays:
HSP70/TLR2 association = molecular target: T1, HSP70/TLR2 association (Homo sapiens, UniProt P0DMV8); test: In vitro co-immunoprecipitation of TLR2 followed by HSP70 immunoblotting; assay type: binding; conditions: A8 from 0.3 μM to 1.8 μM, HSP70 immunoblot
T1 construct: HA; made in house; host or cells: cell-free: TNT Quick Coupled Transcription/Translation System (Promega)
Protocol: FIG. 3: A8 blocks HSP70/TLR2 association. (A) Immunoprecipitation of TLR2 in the presence of increasing concentrations of A8 (from 0.3 μM to 1.8 μM) was followed by HSP70 immunoblotting. IP control, no relevant IgG antibody. (B) Denatured luciferase (D) was incubated in the absence or presence of human HSP70 and, when indicated, increasing concentrations of A8 (C1=5 μM; C2=15 μM; C3=25 μM and C4=50 μM) for 1 hour at 25° C. Following incubation, the luciferase substrate D-luciferin was added and within 10 minutes the total light units emitted were collected for 10 seconds at 560 nm using a Wallac (Victor 3) spectrophotometer. *, p<0.05. (C) Biolayer interferometry to determine association and dissociation curves of HSP70 (concentration range from 2.5 μM to 156 nM) with biotinylated TRL2 immobilized on streptavidin sensor tips. (D) Association and dissociation curves of HSP70 (concentration range from 50 nM to 1.28 nM) with biotinylated A8 immobilized on streptavidin sensor tips. Curves in C and D represent mean values of triplicate measurements for each concentration.
For the in vitro coimmunoprecipitation, we used A8 or TLR2 recombinants proteins. […] The immunoprecipitated proteins were analysed by western blot.
For the in vitro co-immunoprecipitation, we used A8 or TLR2 recombinants proteins. […] The immunoprecipitated proteins were analyzed by western blot.

primary MDSC cells = test: Activation of primary MDSC by exosomes (pSTAT3, IL-6, IL-10, IFNγ in T cell co-culture); assay type: cell-based; conditions: primary MDSC from mouse spleen, exosomes from B16F10, A8 16 μM
Protocol: FIG. 8: A8 blocks the activation of primary MDSC cells. A) A representative image of a western blot showing the kinetics of STAT3 phosphorylation in MDSC cells incubated or not with exosomes isolated from B16F10 cells together with a peptide control (MDSC/TDE) or A8 (MDSC/TDE/A8). B-C) IL-6 (B) and IL-10 (C) concentration was determined by ELISA in the supernatant of MDSC cells incubated or not for 24 h with exosomes (from B16F10) in the absence or presence of A8 (16 μM). D) IFNγ concentration was determined by ELISA in the supernatant of co-cultured MDSC and T lymphocytes incubated or not for 5 days with exosomes (from B16F10) in the absence or presence of A8 ([…]). **, p<0.01; *, p<0.1 (n=3).
MSC2 (2·10^6) or MDSC (2·10^6) were incubated alone or with exosomes (from B16F10, CT26, HCT116, SW480) in the absence or presence of A8 or A17 (16 μM) during 6 hours (RPMI 10% FBS, 5% of CO2 at 37° C.). Every 2 hours, […] cells were sampled and centrifugated 5 min at 300 g. Cells were lysed in lysis buffer (50 mM HEPES (pH 7.6), 150 mM NaCl, 5 mM EDTA, and 0.1% NP40 and anti-phosphatases, Roche). Then, pSTAT3 and STAT3 expression were analyzed by western blotting.
Single-cell suspensions were prepared from spleens, and red cells were removed using ammonium chloride lysis buffer. […] All events were acquired by a BD Bioscience LSR-II device and analyzed with FlowJo (Tree Star). […]

T1 sequence (P0DMV8 whole entry): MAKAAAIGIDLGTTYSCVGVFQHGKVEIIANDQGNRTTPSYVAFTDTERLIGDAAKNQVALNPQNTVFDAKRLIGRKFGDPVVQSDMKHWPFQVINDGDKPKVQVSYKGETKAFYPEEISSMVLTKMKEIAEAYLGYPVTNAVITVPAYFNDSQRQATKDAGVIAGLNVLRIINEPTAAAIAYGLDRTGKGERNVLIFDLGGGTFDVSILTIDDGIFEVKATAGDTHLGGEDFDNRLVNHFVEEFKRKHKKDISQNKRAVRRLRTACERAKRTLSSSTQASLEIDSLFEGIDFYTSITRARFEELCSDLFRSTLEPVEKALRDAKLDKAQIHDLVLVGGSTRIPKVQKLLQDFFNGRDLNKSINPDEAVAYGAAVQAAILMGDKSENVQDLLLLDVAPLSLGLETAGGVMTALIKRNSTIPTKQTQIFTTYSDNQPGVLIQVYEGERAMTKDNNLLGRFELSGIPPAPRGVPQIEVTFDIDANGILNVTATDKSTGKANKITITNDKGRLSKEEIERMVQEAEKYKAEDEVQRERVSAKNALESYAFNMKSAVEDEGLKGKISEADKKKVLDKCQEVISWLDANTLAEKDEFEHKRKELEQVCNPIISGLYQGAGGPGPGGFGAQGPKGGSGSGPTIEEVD

SPWPRPTY [Aptamer A8, SPWPRPTY]
HSP70 association to TLR2 (HSP70/TLR2 association): inhibited by A8 in a dose-dependent manner
MDSC activation markers (IL6 release, STAT-3 phosphorylation, IL10 release, IFNgamma release by T cells) (primary MDSC cells): blocks all MDSC activation markers
